Results taken from patent publication US10342854B2, “Leptin active peptide having cd loop and E helix region mutations, coding gene thereof, and application thereof” (SHANGHAI YUANXIN BIOCHEMICAL SCIENCE AND TECHNOLOGY CO. LTD., priority 2015, dated 2019).
Entries after “also recorded” stand apart in the source; their conditions may differ.

Legend:
3T3-L1 preadipocytes = test: MTT lipid-lowering (adipocyte-degrading) activity analysis on 3T3-L1 preadipocyte line; format: cell-based; conditions: for adipocyte-degrading (adipocyte lysis) activity compared with positive controls H-LEP and Ros: preadipocytes stage, early differentiation stage D0-D2 and mature adipocyte stage D9, PEP-E 10^−6M, Ros 0.5 μM
Procedure: Lipid degradation activity of the synthesized leptin active peptide having CD-loop and helix E region mutations is analyzed on a cellular level by taking a 3T3-L1 preadipocyte line as a model. Specific operations are as follows:
a. leptin active peptide having CD-loop and helix E region mutations (PEP-E): diluted to 10^−3M with purified water and preserved at −20 degree C. for later use. After an experiment is started, working concentrations have 3 concentration gradients, that is, 10^−6M, 10−9M and 10^−11M;
b. positive control 1: H-LEP recombinant human-derived leptin protein (10221-HNAE, Beijing Sino Biological Inc.), diluted to 10^−6M with purified water and preserved at −20 degree C. for later use. After an experiment is started, the working concentration is 10^−9M.
c. positive control 2: Ros rosiglitazone, R2408, Sigma), diluted to a stock solution with a concentration of 2518 μM with DMSO and preserved at −20 degree C. for later use. After an experiment is started, the stock solution is diluted to a working solution of 0.5 μM with cell culture fluid.
d. negative control (Control): equivalent quantity of PBS
(1) inoculating 3T3-L1 preadipocytes in coming cell bind 96-well plates (totally inoculated with 3 plates, respectively plate a, plate b and plate c), wherein the inoculation density is 4500 cells/well; and marking, and standing and culturing at 37 degree C. in a 5% CO2 incubator. Each sample of each plate is operated repeatedly for 3 times, and the whole experiment is repeated for 3 times;
(2) continuously culturing for 48 hours after the cells are merged to 100% (enabling the cells to exit from a growth cycle, and starting induced differentiation.); and
i, taking out the plate a, respectively adding different amounts of leptin active peptide having CD-loop and helix E region mutations (PEP-E) to enable the working concentrations to be respectively 3 concentration gradients, that is, 10^−6M, 10^−9M and […], setting 2 positive controls, a negative control (PBS) and a blank control (3 repeated holes are set for each sample), and continuously standing and culturing at 37 degree C. in the 5% CO2 incubator.
ii, when culturing to 45 hours (that is, 3 hours before the end of drug treatment), taking out the plate a, and measuring MTT (preadipocytes). Specific operations: adding 20 μL of 5 mg/mL of MTT solution into each well, continuously standing and culturing at 37 degree C. in the 5% CO2 incubator for 3 hours, sucking and discarding the culture solution in the wells, adding 150 μL of DMSO into each well, horizontally shaking for 10 min, detecting a light absorption value at 492 nm by a microplate reader, and drawing a growth curve. […]
ii, when culturing to 45 hours (that is, 3 hours before the end of drug treatment), taking out the plate b, and measuring MTT (at the early differentiation stage, D0-D2). Specific operations: adding 20 μL of 5 mg/mL of MTT solution into each well; continuously standing and culturing at 37 degree C. in the 5% CO2 incubator for 3 hours, sucking and discarding the culture solution in the wells; adding 150 μL of DMSO into each well, horizontally shaking for 10 min, detecting a light absorption value at 492 nm by a microplate reader, and drawing a growth curve; […]

[1] = cited from earlier work

H-LEP: recombinant human-derived leptin protein (10221-HNAE, Beijing Sino Biological Inc.) [reference compound]
adipocyte lysis activity of positive control vs. negative control (3T3-L1 preadipocytes; H-LEP 10^−9M, Ros 0.5 μM vs. PBS, P<0.05): obviously better than that of the negative control

SCHLHWAPGLETLDSGVQEASGY (An amino acid sequence of the leptin active peptide having CD-loop and helix E region mutations) [PEP-E]
dependence of lipid-lowering activity on concentration and cell differentiation period (3T3-L1 preadipocytes; 10^−6M, 10^−9M, 10^−11M, preadipocytes, D0-D2, D9): obvious concentration dependence and dependence in a cell differentiation period | adipocyte-degrading (adipocyte lysis) activity compared with positive controls H-LEP and Ros (3T3-L1 preadipocytes; 10^−9M, 10^−11M, H-LEP 10^−9M, P<0.05): obviously better than that of the H-LEP; also recorded: obviously better than that of the Ros | adipocyte-degrading (adipocyte lysis) activity compared with positive controls H-LEP and Ros (3T3-L1 preadipocytes; 10^−9M, 10^−11M, H-LEP 10^−9M, P<0.05, listed as leptin active peptide having CD-loop and helix E region mutations): obviously better than that of positive control-human-derived leptin protein (H-LEP) and a commercially available drug rosiglitazone (Ros,) | lipid-lowering activity: stage and concentration of optimal effect (3T3-L1 preadipocytes; three stages, three concentrations compared): optimal effect at the D0-D2 stage when the concentration is 10^−6M

wild type human-derived leptin protein: leptin protein given to obese patients in the first human experiment
weight loss effect in obese patients ([1]; 73 tested obese patients): most of the patients do not have an obvious weight loss effect | weight loss ([1]; only 2 of 73 patients, within 24 weeks): 35 pounds
